From PubChem BioAssay (NCI)
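1) Cells in 96-well plates. 2) Compound, 48 h, 5 concentrations. 3) Linear interpolation between surrounding doses. 4) Unreached endpoint = highest concentration. At the GI50, growth is halved. TGI: total growth inhibition.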

Tests used:
Experiment in all cases: NCI tumour cell line growth inhibition, 48 h
RXF 393 renal = test system: RXF 393 renal
SNB-19 CNS = test system: SNB-19 CNS
U251 CNS = test system: U251 CNS
UACC-257 melanoma = test system: UACC-257 melanoma
SK-OV-3 ovarian = test system: SK-OV-3 ovarian
SF-295 CNS = test system: SF-295 CNS
NCI-H522 lung = test system: NCI-H522 lung
OVCAR-8 ovarian = test system: OVCAR-8 ovarian
KM12 colon = test system: KM12 colon
COLO 205 colon = test system: COLO 205 colon
IGROV1 ovarian = test system: IGROV1 ovarian
SW-620 colon = test system: SW-620 colon
HT29 colon = test system: HT29 colon
SF-268 CNS = test system: SF-268 CNS
HL-60(TB) leukemia = test system: HL-60(TB) leukemia
PC-3 prostate = test system: PC-3 prostate
MOLT-4 leukemia = test system: MOLT-4 leukemia
MCF7 breast = test system: MCF7 breast
NCI-H23 lung = test system: NCI-H23 lung
NCI-H226 lung = test system: NCI-H226 lung
K-562 leukemia = test system: K-562 leukemia
M14 melanoma = test system: M14 melanoma
HCC-2998 colon = test system: HCC-2998 colon
HCT-116 colon = test system: HCT-116 colon
TK-10 renal = test system: TK-10 renal
ACHN renal = test system: ACHN renal
UACC-62 melanoma = test system: UACC-62 melanoma
HOP-62 NSCLC = test system: HOP-62 NSCLC
NCI/ADR-RES ovarian = test system: NCI/ADR-RES ovarian
BT-549 breast = test system: BT-549 breast
UO-31 renal = test system: UO-31 renal
DU-145 prostate = test system: DU-145 prostate
OVCAR-5 ovarian = test system: OVCAR-5 ovarian
CAKI-1 renal = test system: CAKI-1 renal
MDA-MB-435 = test system: MDA-MB-435
NCI-H460 lung = test system: NCI-H460 lung
RPMI-8226 leukemia = test system: RPMI-8226 leukemia
786-0 renal = test system: 786-0 renal
MALME-3M melanoma = test system: MALME-3M melanoma
SK-MEL-2 melanoma = test system: SK-MEL-2 melanoma
SNB-75 CNS = test system: SNB-75 CNS
EKVX NSCLC = test system: EKVX NSCLC
HOP-92 NSCLC = test system: HOP-92 NSCLC
T-47D breast = test system: T-47D breast
HCT-15 colon = test system: HCT-15 colon
CCRF-CEM leukemia = test system: CCRF-CEM leukemia
SK-MEL-28 melanoma = test system: SK-MEL-28 melanoma
SK-MEL-5 melanoma = test system: SK-MEL-5 melanoma
A498 renal = test system: A498 renal
SN12C renal = test system: SN12C renal
LOX IMVI melanoma = test system: LOX IMVI melanoma
SR leukemia = test system: SR leukemia
SF-539 CNS = test system: SF-539 CNS
MDA-MB-231 breast = test system: MDA-MB-231 breast
OVCAR-3 ovarian = test system: OVCAR-3 ovarian
HS 578T breast = test system: HS 578T breast
OVCAR-4 ovarian = test system: OVCAR-4 ovarian
A549 NSCLC = test system: A549 NSCLC

For CCN(CC)c1ccc(/C=N/NC(=O)c2ccc(NS(C)(=O)=O)cc2)cc1, the GI50 (RXF 393 renal) was 1180 nM, the TGI (RXF 393 renal) was 4.78 µM and the GI50 (SNB-19 CNS) was 1600 nM. The TGI (SNB-19 CNS) was over 79.6 µM, the GI50 (U251 CNS) was 236 nM and the TGI (U251 CNS) was over 44.5 µM. For the same compound, the GI50 (UACC-257 melanoma) was 1100 nM, the TGI (UACC-257 melanoma) was 21.2 µM and the GI50 (SK-OV-3 ovarian) was 1050 nM. The TGI (SK-OV-3 ovarian) was 27.7 µM, the GI50 (SF-295 CNS) was 828 nM and the TGI (SF-295 CNS) was 20.7 µM. It also gave a GI50 (NCI-H522 lung) of 418 nM, a TGI (NCI-H522 lung) of 15.1 µM and a GI50 (OVCAR-8 ovarian) of 445 nM. It also gave a TGI (OVCAR-8 ovarian) of over 100 µM, a GI50 (KM12 colon) of 907 nM and a TGI (KM12 colon) of over 66.8 µM. It also gave a GI50 (COLO 205 colon) of 643 nM, a TGI (COLO 205 colon) of 25.9 µM and a GI50 (IGROV1 ovarian) of 716 nM. For the same compound, the TGI (IGROV1 ovarian) was over 100 µM, the GI50 (SW-620 colon) was 693 nM and the TGI (SW-620 colon) was over 100 µM. The GI50 (HT29 colon) was 556 nM, the TGI (HT29 colon) was 18.7 µM and the GI50 (SF-268 CNS) was 383 nM. For the same compound, the TGI (SF-268 CNS) was over 49 µM, the GI50 (HL-60(TB) leukemia) was 294 nM and the GI50 (PC-3 prostate) was 561 nM. The TGI (PC-3 prostate) was over 100 µM, the GI50 (MOLT-4 leukemia) was 433 nM and the TGI (MOLT-4 leukemia) was over 41.3 µM. For the same compound, the GI50 (MCF7 breast) was 598 nM, the TGI (MCF7 breast) was over 100 µM and the GI50 (NCI-H23 lung) was 1890 nM. For the same compound, the TGI (NCI-H23 lung) was over 100 µM, the GI50 (NCI-H226 lung) was 1210 nM and the TGI (NCI-H226 lung) was 38 µM. For the same compound, the GI50 (K-562 leukemia) was 595 nM, the TGI (K-562 leukemia) was over 100 µM and the GI50 (M14 melanoma) was 463 nM. It also gave a TGI (M14 melanoma) of 3.42 µM, a GI50 (HCC-2998 colon) of 704 nM and a TGI (HCC-2998 colon) of over 76.8 µM. It also gave a GI50 (HCT-116 colon) of 352 nM, a TGI (HCT-116 colon) of over 87.7 µM and a GI50 (TK-10 renal) of 1740 nM. It also gave a TGI (TK-10 renal) of over 92.6 µM, a GI50 (ACHN renal) of 656 nM and a TGI (ACHN renal) of 57.1 µM. The GI50 (UACC-62 melanoma) was 526 nM, the TGI (UACC-62 melanoma) was 10.2 µM and the GI50 (HOP-62 NSCLC) was 415 nM. The TGI (HOP-62 NSCLC) was 17.8 µM, the GI50 (NCI/ADR-RES ovarian) was 3.86 µM and the TGI (NCI/ADR-RES ovarian) was over 100 µM. The GI50 (BT-549 breast) was 847 nM, the TGI (BT-549 breast) was 11.2 µM and the GI50 (UO-31 renal) was 580 nM. For the same compound, the TGI (UO-31 renal) was 24.4 µM, the GI50 (DU-145 prostate) was 933 nM and the TGI (DU-145 prostate) was over 100 µM. It also gave a GI50 (OVCAR-5 ovarian) of 2320 nM, a TGI (OVCAR-5 ovarian) of over 100 µM and a GI50 (CAKI-1 renal) of 554 nM. The TGI (CAKI-1 renal) was over 47 µM, the GI50 (MDA-MB-435) was 1560 nM and the TGI (MDA-MB-435) was over 100 µM. It also gave a GI50 (NCI-H460 lung) of 564 nM, a TGI (NCI-H460 lung) of 11.8 µM and a GI50 (RPMI-8226 leukemia) of 4.28 µM. The TGI (RPMI-8226 leukemia) was over 60.7 µM, the GI50 (786-0 renal) was 714 nM and the TGI (786-0 renal) was 6.48 µM. For the same compound, the GI50 (MALME-3M melanoma) was 1170 nM, the TGI (MALME-3M melanoma) was 15.3 µM and the GI50 (SK-MEL-2 melanoma) was 4.33 µM. For the same compound, the TGI (SK-MEL-2 melanoma) was 24.6 µM, the GI50 (SNB-75 CNS) was 434 nM and the TGI (SNB-75 CNS) was 16.9 µM. It also gave a GI50 (EKVX NSCLC) of 1010 nM, a TGI (EKVX NSCLC) of over 77 µM and a GI50 (HOP-92 NSCLC) of 457 nM. It also gave a TGI (HOP-92 NSCLC) of 40.3 µM, a GI50 (T-47D breast) of 1220 nM and a TGI (T-47D breast) of over 72.1 µM. The GI50 (HCT-15 colon) was 431 nM, the TGI (HCT-15 colon) was 49.1 µM and the GI50 (CCRF-CEM leukemia) was 301 nM. It also gave a TGI (CCRF-CEM leukemia) of over 100 µM, a GI50 (SK-MEL-28 melanoma) of 498 nM and a TGI (SK-MEL-28 melanoma) of over 78.2 µM. For the same compound, the GI50 (SK-MEL-5 melanoma) was 1670 nM, the TGI (SK-MEL-5 melanoma) was over 46.5 µM and the GI50 (A498 renal) was 6.09 µM. The TGI (A498 renal) was 41.3 µM, the GI50 (SN12C renal) was 978 nM and the TGI (SN12C renal) was over 100 µM. The GI50 (LOX IMVI melanoma) was 301 nM, the TGI (LOX IMVI melanoma) was 10.9 µM and the GI50 (SR leukemia) was 170 nM. For the same compound, the TGI (SR leukemia) was over 100 µM, the GI50 (SF-539 CNS) was 571 nM and the TGI (SF-539 CNS) was 11.3 µM. The GI50 (MDA-MB-231 breast) was 546 nM, the TGI (MDA-MB-231 breast) was over 72.1 µM and the GI50 (OVCAR-3 ovarian) was 231 nM. It also gave a TGI (OVCAR-3 ovarian) of 20.1 µM, a GI50 (HS 578T breast) of 2740 nM and a TGI (HS 578T breast) of 58.9 µM. It also gave a GI50 (OVCAR-4 ovarian) of 409 nM, a TGI (OVCAR-4 ovarian) of over 100 µM and a GI50 (A549 NSCLC) of 2430 nM. It also gave a TGI (A549 NSCLC) of over 100 µM.
